Patent US11759462B2, “Spirocyclic compounds as tryptophan hydroxylase inhibitors” (priority 2013, dated 2023)

What was measured:
[1] = target: T1, Recombinant human TPH1 (MBP tagged) (Homo sapiens, UniProt P17752); experiment: TPH1 in vitro inhibition assay (kinetic fluorescence); type: biochemical; conditions: read-out: TPH1 Range (TPH1 inhibition IC50)
T1 construct: cloning full length human TPH1 cDNA in to a bacterial pMAL-c5E expression vector; made in house; host or cells: E. coli BL21 (DE3)
T1 sequence (P17752 1-444): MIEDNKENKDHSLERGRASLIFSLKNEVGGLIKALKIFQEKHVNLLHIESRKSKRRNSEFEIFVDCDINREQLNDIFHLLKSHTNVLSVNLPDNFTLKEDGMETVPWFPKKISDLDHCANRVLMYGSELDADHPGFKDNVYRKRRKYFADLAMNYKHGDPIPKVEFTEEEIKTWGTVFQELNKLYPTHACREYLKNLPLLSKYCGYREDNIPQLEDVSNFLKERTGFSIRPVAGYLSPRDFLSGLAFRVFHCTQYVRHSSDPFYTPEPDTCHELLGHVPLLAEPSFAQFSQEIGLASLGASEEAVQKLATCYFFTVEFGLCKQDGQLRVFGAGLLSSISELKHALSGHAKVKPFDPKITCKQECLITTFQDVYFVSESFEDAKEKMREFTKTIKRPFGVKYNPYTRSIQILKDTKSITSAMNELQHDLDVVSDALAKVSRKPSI
Procedure, shortened: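 Final mix: 15 nM MBP-TPH1, 30 μM Trp, 36 μM 6-methyltetrahydropterin, 25 μM ferrous ammonium sulfate, 50 mM MES pH 7.1, 1% DMSO, room temperature.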

[2] = test system: jejunal mucosal 5-HT in mice (C57 BL6); experiment: Intestinal 5-HT depletion assay (Example B, single 150 mg/kg oral dose); type: in vivo, mouse; conditions: one day after oral administration of a single 150 mg/kg dose, P-value class (ANOVA)
Method: The efficacy of the TPH1 inhibitors of the invention was assessed for the ability to decrease intestinal serotonin concentration in mice. Mice (C57 BL6) were administered a single 150 mg/kg dose of test article by oral gavage. Each animal was euthanized by exsanguination under isoflurane anesthesia. Jejunal intestinal mucosa was isolated and homogenized in 300 μL of a buffer containing 0.3M trichloroacetic acid, 0.1M sodium acetate, 10 mM EDTA, 20 mM sodium bisulfate and 50 mM ascorbic acid. Following centrifugation the 5-HT levels in the supernatants were measured by HPLC. The remaining mucosal pellet was solubilized overnight at 37° C. in a 0.1% sodium dodecyl sulfate buffer in 0.1N NaOH followed by determination of protein concentrations using a BCA protein assay (Pierce, Rockford, Ill. 5-HT levels were normalized to protein and data were expressed as mean percent reduction of mucosal 5-HT levels relative to vehicle control SEM (percent 5-HT reduction). All animal studies were carried out with protocols approved by the Institutional Animal Care and Use Committee.
P-values, indicating statistical significance of the data (ANOVA) are provided in the table: * refers to P<0.05, ** refers to P<0.01, *** refers to P<0.005, and refers to P<0.0005.

Molecule | IC50 [1] [µM] | Efficacy (statistical significance of reduction of mucosal 5-HT concentrations relative to vehicle) [2]
Cc1ccn(-c2cc(-c3ccncc3)ccc2[C@@H](Oc2cc(N3CCC4(CC3)CN[C@H](C(=O)O)C4)nc(N)n2)C(F)(F)F)n1 [Example 1g, (S)-8-(2-amino-6-((R)-2,2,2-trifluoro-1-(2-(3-methyl-1H-pyrazol-1-yl)-4-(pyridin-4-yl)phenyl)ethoxy)pyrimidin-4-yl)-2,8-diazaspiro[4.5]decane-3-carboxylic acid] | < 0.05 | *** (*** refers to P<0.005)
Cc1ccn(-c2cc(-c3cnn(C)c3)ccc2[C@@H](Oc2cc(N3CCC4(CC3)CN[C@H](C(=O)O)C4)nc(N)n2)C(F)(F)F)n1 [Example 1h, (S)-8-(2-amino-6-((R)-2,2,2-trifluoro-1-(2-(3-methyl-1H-pyrazol-1-yl)-4-(1-methyl-1H-pyrazol-4-yl)phenyl)ethoxy)pyrimidin-4-yl)-2,8-diazaspiro[4.5]decane-3-carboxylic acid] | < 0.05 | ** (** refers to P<0.01)
Cc1ccn(-c2cc(-c3ccc4c(C)n[nH]c4c3)ccc2[C@@H](Oc2cc(N3CCC4(CC3)CN[C@H](C(=O)O)C4)nc(N)n2)C(F)(F)F)n1 [Example 1o, (S)-8-(2-amino-6-((R)-2,2,2-trifluoro-1-(4-(3-methyl-1H-indazol-6-yl)-2-(3-methyl-1H-pyrazol-1-yl)phenyl)ethoxy)pyrimidin-4-yl)-2,8-diazaspiro[4.5]decane-3-carboxylic acid] | < 0.05 | ** (** refers to P<0.01)
Cc1ccn(-c2cc(-c3ccc(C(C)(C)C)cc3)ccc2[C@@H](Oc2cc(N3CCC4(CC3)CN[C@H](C(=O)O)C4)nc(N)n2)C(F)(F)F)n1 [Example 1p, (S)-8-(2-amino-6-((R)-1-(4′-(tert-butyl)-3-(3-methyl-1H-pyrazol-1-yl)-[1,1′-biphenyl]-4-yl)-2,2,2-trifluoroethoxy)pyrimidin-4-yl)-2,8-diazaspiro[4.5]decane-3-carboxylic acid] | < 0.05 | ** (** refers to P<0.01)
CC(=O)NCCc1ccc(-c2ccc([C@@H](Oc3cc(N4CCC5(CC4)CN[C@H](C(=O)O)C5)nc(N)n3)C(F)(F)F)c(-n3ccc(C)n3)c2)cc1 [Example 1y, (S)-8-(6-((R)-1-(4′-(2-acetamidoethyl)-3-(3-methyl-1H-pyrazol-1-yl)-[1,1′-biphenyl]-4-yl)-2,2,2-trifluoroethoxy)-2-aminopyrimidin-4-yl)-2,8-diazaspiro[4.5]decane-3-carboxylic acid] | < 0.05 | ** (** refers to P<0.01)
COc1ccc([C@@H](Oc2cc(N3CCC4(CC3)CNC(C(=O)O)C4)nc(N)n2)C(F)(F)F)c(-n2ccc(C)n2)c1 (stereo partly drawn) [Example 10j, 8-(2-amino-6-((R)-2,2,2-trifluoro-1-(4-methoxy-2-(3-methyl-1H-pyrazol-1-yl)phenyl)ethoxy)pyrimidin-4-yl)-2,8-diazaspiro[4.5]decane-3-carboxylic acid] | 0.05 to 0.3 | **** (and refers to P<0.0005)
CCOC(=O)c1ccccc1-c1ccc(-n2ccc(C)n2)c([C@@H](Oc2cc(N3CCC4(CC3)CN[C@H](C(=O)OCC)C4)nc(N)n2)C(F)(F)F)c1 [Example 63da, (S)-ethyl 8-(2-amino-6-((R)-1-(2′-(ethoxycarbonyl)-4-(3-methyl-1H-pyrazol-1-yl)-[1,1′-biphenyl]-3-yl)-2,2,2-trifluoroethoxy)pyrimidin-4-yl)-2,8-diazaspiro[4.5]decane-3-carboxylate] |  | *** (*** refers to P<0.005)
CCOC(=O)CCc1ccc(-c2ccc(-n3ccc(C)n3)c([C@@H](Oc3cc(N4CCC5(CC4)CN[C@H](C(=O)OCC)C5)nc(N)n3)C(F)(F)F)c2)cc1 [Example 63di, (S)-ethyl 8-(2-amino-6-((R)-1-(4′-(3-ethoxy-3-oxopropyl)-4-(3-methyl-1H-pyrazol-1-yl)-[1,1′-biphenyl]-3-yl)-2,2,2-trifluoroethoxy)pyrimidin-4-yl)-2,8-diazaspiro[4.5]decane-3-carboxylate] |  | *** (*** refers to P<0.005)
CCOC(=O)[C@@H]1CC2(CCN(c3cc(O[C@H](c4ccc(-c5ccc(OC)c(OC)c5)cc4)C(F)(F)F)nc(N)n3)CC2)CN1 [Example 63g, (S)-ethyl 8-(2-amino-6-((R)-1-(3′,4′-dimethoxy-[1,1′-biphenyl]-4-yl)-2,2,2-trifluoroethoxy)pyrimidin-4-yl)-2,8-diazaspiro[4.5]decane-3-carboxylate] |  | *** (*** refers to P<0.005)
CCCCCOC(=O)[C@@H]1CC2(CCN(c3cc(O[C@H](c4ccc(Cl)cc4-n4ccc(C)n4)C(F)(F)F)nc(N)n3)CC2)CN1 [Example 64c, (S)-pentyl 8-(2-amino-6-((R)-1-(4-chloro-2-(3-methyl-1H-pyrazol-1-yl)phenyl)-2,2,2-trifluoroethoxy)pyrimidin-4-yl)-2,8-diazaspiro[4.5]decane-3-carboxylate] |  | **** (and refers to P<0.0005)
CCCOC(=O)[C@@H]1CC2(CCN(c3cc(O[C@H](c4ccc(Cl)cc4-n4ccc(C)n4)C(F)(F)F)nc(N)n3)CC2)CN1 [Example 64e, (S)-propyl 8-(2-amino-6-((R)-1-(4-chloro-2-(3-methyl-1H-pyrazol-1-yl)phenyl)-2,2,2-trifluoroethoxy)pyrimidin-4-yl)-2,8-diazaspiro[4.5]decane-3-carboxylate] |  | **** (and refers to P<0.0005)
Cc1ccn(-c2cc(Cl)ccc2[C@@H](Oc2cc(N3CCC4(CC3)CN[C@H](C(=O)OCC(C)(C)C)C4)nc(N)n2)C(F)(F)F)n1 [Example 64f, (S)-neopentyl 8-(2-amino-6-((R)-1-(4-chloro-2-(3-methyl-1H-pyrazol-1-yl)phenyl)-2,2,2-trifluoroethoxy)pyrimidin-4-yl)-2,8-diazaspiro[4.5]decane-3-carboxylate] |  | **** (and refers to P<0.0005)
CCCCOC(=O)[C@@H]1CC2(CCN(c3cc(O[C@H](c4ccc(Cl)cc4-n4ccc(C)n4)C(F)(F)F)nc(N)n3)CC2)CN1 [Example 64g, (S)-butyl 8-(2-amino-6-((R)-1-(4-chloro-2-(3-methyl-1H-pyrazol-1-yl)phenyl)-2,2,2-trifluoroethoxy)pyrimidin-4-yl)-2,8-diazaspiro[4.5]decane-3-carboxylate] |  | * (* refers to P<0.05)
Cc1ccn(-c2cc(Cl)ccc2[C@@H](Oc2cc(N3CCC4(CC3)CN[C@H](C(=O)OC(C)(C)C)C4)nc(N)n2)C(F)(F)F)n1 [Example 65a, (S)-Tert-butyl 8-(2-amino-6-((R)-1-(4-chloro-2-(3-methyl-1H-pyrazol-1-yl)phenyl)-2,2,2-trifluoroethoxy)pyrimidin-4-yl)-2,8-diazaspiro[4.5]decane-3-carboxylate] |  | **** (and refers to P<0.0005)
Cc1ccn(-c2cc(Cl)ccc2[C@@H](Oc2cc(N3CCC4(CC3)CN[C@H](C(=O)OCCOC(=O)[C@H](N)C(C)C)C4)nc(N)n2)C(F)(F)F)n1 [Example 66c, (S)-2-(((R)-2-amino-3-methylbutanoyl)oxy)ethyl 8-(2-amino-6-((R)-1-(4-chloro-2-(3-methyl-1H-pyrazol-1-yl)phenyl)-2,2,2-trifluoroethoxy)pyrimidin-4-yl)-2,8-diazaspiro[4.5]decane-3-carboxylate] |  | **** (and refers to P<0.0005)
(S)-2-(pivaloyloxy)ethyl 8-(2-amino-6- ((R)-1-(4-chloro-2-(3-methyl-1H-pyrazol- 1-yl)phenyl)-2,2,2- trifluoroethoxy)pyrimidin-4-yl)-2,8- diazaspiro[4.5]decane-3-carboxylate [Example 66d] |  | **** (and refers to P<0.0005)
(S)-isopropyl 8-(2-amino-6-((R)-1-(4-chloro-2-(3-methyl- 1H-pyrazol-1-yl)phenyl)-2,2,2-trifluoroethoxy)pyrimidin- 4-yl)-2,8-diazaspiro[4.5]decane-3-carboxylate [Example 64h] |  | ** (** refers to P<0.01)
